Source: US20220062240A1, “METHODS OF TREATING CANCER USING A CLK INHIBITOR” (BioSplice Therapeutics, Inc., priority 2018, published 2022)
Like-named read-outs stand apart in the source and are kept apart here. Blank lines part the entries; values can stand above or below the compound they belong to.

Tests used:
[1] = system: lung cancer (4 cell lines); assay: CellTiter-Glo Viability Assay, lung cancer; assay type: cell-based; conditions: Homo sapiens, inhibition of cancer cell proliferation
[2] = system: ovarian cancer (4 cell lines); assay: CellTiter-Glo Viability Assay, ovarian cancer; assay type: cell-based; conditions: Homo sapiens, inhibition of cancer cell proliferation
CLK2 = molecular target: T1, CLK2 (Homo sapiens, UniProt P49760); assay: CLK2 kinase activity assay (Z-lyte, Ser/Thr 6 peptide); assay type: biochemical; conditions: recombinant CLK2 kinase, ATP 60 μM; read-out: EC50
T1 construct: purchased Thermo Fisher (Life Technologies), Z'-LYTE Kinase Assay Kits
T1 sequence (P49760 whole entry): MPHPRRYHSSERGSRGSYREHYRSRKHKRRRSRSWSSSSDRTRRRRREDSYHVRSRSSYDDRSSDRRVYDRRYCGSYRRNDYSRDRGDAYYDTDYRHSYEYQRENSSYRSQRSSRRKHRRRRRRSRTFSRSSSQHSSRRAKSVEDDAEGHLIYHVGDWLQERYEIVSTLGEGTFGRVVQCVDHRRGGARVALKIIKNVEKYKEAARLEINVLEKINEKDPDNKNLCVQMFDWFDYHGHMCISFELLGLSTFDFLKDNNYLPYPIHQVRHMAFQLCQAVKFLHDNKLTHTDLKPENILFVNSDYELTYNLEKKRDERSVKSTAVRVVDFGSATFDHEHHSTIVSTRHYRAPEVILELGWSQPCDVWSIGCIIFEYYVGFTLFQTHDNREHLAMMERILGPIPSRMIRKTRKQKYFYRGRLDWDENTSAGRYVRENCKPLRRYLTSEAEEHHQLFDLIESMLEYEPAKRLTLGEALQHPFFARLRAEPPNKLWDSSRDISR
Experimental: All reactions were performed in duplicate.

[3] = system: liver cancer (3 cell lines); assay: CellTiter-Glo Viability Assay, liver cancer; assay type: cell-based; conditions: Homo sapiens, inhibition of cancer cell proliferation
[4] = system: prostate cancer (5 cell lines); assay: CellTiter-Glo Viability Assay, prostate cancer; assay type: cell-based; conditions: Homo sapiens
[5] = system: haematopoietic & lymphoid tumors (13 cell lines); assay: CellTiter-Glo Viability Assay, haematopoietic & lymphoid tumors; assay type: cell-based; conditions: Homo sapiens, inhibition of cancer cell proliferation
[6] = system: colorectal cancer (6 cell lines); assay: CellTiter-Glo Viability Assay, colorectal cancer; assay type: cell-based; conditions: Homo sapiens, inhibition of cancer cell proliferation
[7] = system: pancreatic cancer (8 cell lines); assay: CellTiter-Glo Viability Assay, pancreatic cancer; assay type: cell-based; conditions: Homo sapiens, inhibition of cancer cell proliferation
all 50 cell lines = assay: CellTiter-Glo Viability Assay, average across all cell lines; assay type: cell-based; conditions: Homo sapiens; across all 50 cell lines; read-out: average EC50 for inhibition of cancer cell proliferation
Outline: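 Luminescent ATP read-out (CellTiter-Glo) after a 4-day compound exposure at 37° C served as the viability measure. Cells were seeded at 300-3,000/well, compound wells run in duplicate against DMSO controls, and EC50 values came from fitted dose-response curves.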

MDA-MB-231-Luc = assay: CellTiter-Glo Viability Assay, breast cancer; assay type: cell-based; conditions: Homo sapiens, 96 h; MDA-MB-231-Luc, breast cancer, four days; read-out: EC50
ZR-75-1 = assay: CellTiter-Glo Viability Assay, breast cancer; assay type: cell-based; conditions: Homo sapiens, 96 h; ZR-75-1, breast cancer, four days; read-out: EC50
CAMA1 = assay: CellTiter-Glo Viability Assay, breast cancer; assay type: cell-based; conditions: Homo sapiens, CAMA-1, 96 h; CAMA1, breast cancer, four days; read-out: EC50
T47D = assay: CellTiter-Glo Viability Assay, breast cancer; assay type: cell-based; conditions: Homo sapiens, 96 h, breast cancer, four days, read-out: EC50
MCF7 = assay: CellTiter-Glo Viability Assay, breast cancer; assay type: cell-based; conditions: Homo sapiens, 96 h; MCF7, breast cancer, four days; read-out: EC50
DU4475 = assay: CellTiter-Glo Viability Assay, breast cancer; assay type: cell-based; conditions: Homo sapiens, DU-4475, 96 h; DU4475, breast cancer, four days; read-out: EC50
BT-549 = assay: CellTiter-Glo Viability Assay, breast cancer; assay type: cell-based; conditions: Homo sapiens, 96 h; BT-549, breast cancer, four days; read-out: EC50
HCC1599 = assay: CellTiter-Glo Viability Assay, breast cancer; assay type: cell-based; conditions: Homo sapiens, 96 h; HCC1599, breast cancer, four days; read-out: EC50
CLK3 = CLK3 (Homo sapiens, UniProt P49761); assay: CLK3 kinase activity assay (Z-lyte, Ser/Thr 18 peptide)
Sequence of CLK3 (P49761 whole entry): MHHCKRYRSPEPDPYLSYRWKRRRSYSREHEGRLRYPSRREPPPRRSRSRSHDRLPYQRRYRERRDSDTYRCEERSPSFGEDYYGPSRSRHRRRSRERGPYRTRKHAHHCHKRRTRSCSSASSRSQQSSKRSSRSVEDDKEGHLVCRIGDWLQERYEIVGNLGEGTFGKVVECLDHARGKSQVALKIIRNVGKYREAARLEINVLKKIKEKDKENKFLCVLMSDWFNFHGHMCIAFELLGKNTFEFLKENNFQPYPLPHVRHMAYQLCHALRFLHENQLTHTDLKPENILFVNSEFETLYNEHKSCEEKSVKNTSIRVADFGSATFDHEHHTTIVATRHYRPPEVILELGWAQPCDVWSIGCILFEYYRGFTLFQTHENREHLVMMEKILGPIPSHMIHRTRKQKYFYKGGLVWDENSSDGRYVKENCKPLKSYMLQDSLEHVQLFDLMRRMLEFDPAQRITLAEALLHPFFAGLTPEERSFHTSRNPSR

[8] = A-427, A427 cell line, read-out: Lung cancer, EC50 (μM) A427
[9] = HCC78, HCC-78 cell line, read-out: Lung cancer, EC50 (μM) HCC-78
[10] = NCI-H460 cell line, read-out: Lung cancer, EC50 (μM) NCI-H460
[11] = NCI-H522 cell line, read-out: Lung cancer, EC50 (μM) NCI-H522
[12] = PA-1, PA1 cell line, read-out: Ovarian cancer, EC50 (μM) PA1
[13] = TOV112D, TOV-112D cell line, read-out: Ovarian cancer, EC50 (μM) TOV-112D
[14] = OV-90 cell line, read-out: Ovarian cancer, EC50 (μM) OV-90
[15] = OVCAR-3 cell line, read-out: Ovarian cancer, EC50 (μM) OVCAR-3
[16] = SNU-398, SNU398 cell line, read-out: Liver cancer, EC50 SNU398
[17] = HEPG2 cell line, read-out: Liver cancer, EC50 HEPG2
[18] = PLC/PRF/5 cell line, read-out: Liver cancer, EC50 PLC/PRF/5
[19] = DU-145, read-out: Prostate cancer EC50 Du-145
[20] = PC-3, PC3 cell line, inhibition of cancer cell proliferation, read-out: Prostate cancer EC50 PC3
[21] = 22Rv1 cell line, inhibition of cancer cell proliferation, read-out: Prostate cancer EC50 22Rv1
[22] = LNCap clone FGC cell line, inhibition of cancer cell proliferation, read-out: Prostate cancer EC50 LNCap clone FGC
[23] = VCaP (Sigma) cell line, inhibition of cancer cell proliferation, read-out: Prostate cancer EC50 VCaP (Sigma)
[24] = DND41, DND-41 cell line, read-out: Haematopoietic & Lymphoid tumors, EC50 (μM) DND-41
[25] = MV4-11, MV-4-11 cell line, read-out: Haematopoietic & Lymphoid tumors, EC50 (μM) MV-4-11
[26] = Rec1, REC-1 cell line, read-out: Haematopoietic & Lymphoid tumors, EC50 (μM) REC-1
[27] = SU-DHL-4, SUDHL4 cell line, read-out: Haematopoietic & Lymphoid tumors, EC50 (μM) SUDHL4
[28] = HL-60 cell line, read-out: Haematopoietic & Lymphoid tumors, EC50 (μM) HL-60
[29] = JM1 cell line, read-out: Haematopoietic & Lymphoid tumors, EC50 (μM) JM1
[30] = JURKAT, Clone E6-1 cell line, read-out: Haematopoietic & Lymphoid tumors, EC50 (μM) JURKAT, Clone E6-1
[31] = JeKo-1 cell line, read-out: Haematopoietic & Lymphoid tumors, EC50 (μM) JeKo-1
[32] = KASUMI-1 cell line, read-out: Haematopoietic & Lymphoid tumors, EC50 (μM) KASUMI-1
[33] = Loucy cell line, read-out: Haematopoietic & Lymphoid tumors, EC50 (μM) Loucy
[34] = MOLT-4 cell line, read-out: Haematopoietic & Lymphoid tumors, EC50 (μM) MOLT-4
[35] = TF-1 cell line, read-out: Haematopoietic & Lymphoid tumors, EC50 (μM) TF-1
[36] = TOLEDO cell line, read-out: Haematopoietic & Lymphoid tumors, EC50 (μM) TOLEDO
[37] = HCT-116, HCT116 cell line, read-out: Colorectal cancer, EC50 (μM) HCT116
[38] = HT-29, HT29 cell line, read-out: Colorectal cancer, EC50 (μM) HT29
[39] = SW-620, SW620 cell line, read-out: Colorectal cancer, EC50 (μM) SW620
[40] = DLD-1 cell line, read-out: Colorectal cancer, EC50 (μM) DLD-1
[41] = SW48 cell line, read-out: Colorectal cancer, EC50 (μM) SW48
[42] = SW480 cell line, read-out: Colorectal cancer, EC50 (μM) SW480
[43] = BXPC-3, BxPC3 cell line, read-out: Pancreatic cancer, EC50 BxPC3
[44] = CAPAN-1, Capan1 cell line, read-out: Pancreatic cancer, EC50 Capan1
[45] = Capan-2, Capan2 cell line, read-out: Pancreatic cancer, EC50 Capan2
[46] = MIA PaCa-2 cell line, read-out: Pancreatic cancer, EC50 MIA PaCa-2
[47] = PANC 05.04 cell line, read-out: Pancreatic cancer, EC50 PANC 05.04
[48] = PANC-1 cell line, read-out: Pancreatic cancer, EC50 PANC-1
[49] = UPAFII cell line, read-out: Pancreatic cancer, EC50 UPAFII

- EC50 [1, 8]: 0.198 µM
- EC50 [1, 9]: 0.304 µM
- EC50 [1, 10]: 0.248 µM
- EC50 [1, 11]: 0.095 µM
- EC50 [2, 12]: 0.209 µM
- EC50 [2, 13]: 0.117 µM
- EC50 [2, 14]: 0.334 µM
- EC50 [2, 15]: 0.092 µM
- EC50 (CLK2): 1.1 nM
- EC50 [3, 16]: 48 nM
- EC50 [3, 17]: 165 nM
- EC50 [3, 18]: 459 nM
- EC50 [4, 19]: 252 nM
- EC50 [4, 20]: 205 nM
- EC50 [4, 21]: 232 nM
- EC50 [4, 22]: 333 nM
- EC50 [4, 23]: 466 nM
- EC50 [5, 24]: 0.191 µM
- EC50 [5, 25]: 0.056 µM
- EC50 [5, 26]: 0.061 µM
- EC50 [5, 27]: 0.208 µM
- EC50 [5, 28]: 0.432 µM
- EC50 [5, 29]: 0.054 µM
- EC50 [5, 30]: 0.431 µM
- EC50 [5, 31]: 0.062 µM
- EC50 [5, 32]: 0.129 µM
- EC50 [5, 33]: 0.146 µM
- EC50 [5, 34]: 0.2 µM
- EC50 [5, 35]: 0.368 µM
- EC50 [5, 36]: 0.073 µM
- EC50 [6, 37]: 0.105 µM
- EC50 [6, 38]: 0.247 µM
- EC50 [6, 39]: 0.068 µM
- EC50 [6, 40]: 0.137 µM
- EC50 [6, 41]: 0.052 µM
- EC50 [6, 42]: 0.145 µM
- EC50 [7, 43]: 383 nM
- EC50 [7, 44]: 225 nM
- EC50 [7, 45]: 344 nM
- EC50 [7, 46]: 90 nM
- EC50 [7, 47]: 289 nM
- EC50 [7, 48]: 352 nM
- EC50 [7, 49]: 140 nM
- EC50 (MDA-MB-231-Luc): 292 nM
- EC50 (ZR-75-1): 365 nM
- EC50 (CAMA1): 307 nM
- EC50 (T47D): 493 nM
- EC50 (MCF7): 860 nM
- EC50 (DU4475): 140 nM
- EC50 (BT-549): 215 nM
- EC50 (HCC1599): 177 nM
- EC50 (CLK3): 16.2 nM
SMILES: CN1CCC2(CC1)CN(c1cc(C(=O)Nc3cc4cc(-c5cnn(C)c5)ccc4cn3)ccn1)C2 [Compound 71]
- EC50 (all 50 cell lines): 232 nM

- EC50 [1, 8]: 0.275 µM
- EC50 [1, 9]: 0.173 µM
- EC50 [1, 10]: 0.197 µM
- EC50 [1, 11]: 0.105 µM
- EC50 [2, 12]: 0.17 µM
- EC50 [2, 13]: 0.121 µM
- EC50 [2, 14]: 0.234 µM
- EC50 [2, 15]: 0.11 µM
- EC50 (CLK2): 2.9 nM
- EC50 [3, 16]: 50 nM
- EC50 [3, 17]: 107 nM
- EC50 [3, 18]: 314 nM
- EC50 [4, 19]: 199 nM
- EC50 [4, 20]: 195 nM
- EC50 [4, 21]: 140 nM
- EC50 [4, 22]: 330 nM
- EC50 [4, 23]: 255 nM
- EC50 [5, 24]: 0.185 µM
- EC50 [5, 25]: 0.033 µM
- EC50 [5, 26]: 0.065 µM
- EC50 [5, 27]: 0.151 µM
- EC50 [5, 28]: 0.409 µM
- EC50 [5, 29]: 0.064 µM
- EC50 [5, 30]: 0.353 µM
- EC50 [5, 31]: 0.064 µM
- EC50 [5, 32]: 0.129 µM
- EC50 [5, 33]: 0.135 µM
- EC50 [5, 34]: 0.196 µM
- EC50 [5, 35]: 0.256 µM
- EC50 [5, 36]: 0.087 µM
- EC50 [6, 37]: 0.102 µM
- EC50 [6, 38]: 0.182 µM
- EC50 [6, 39]: 0.065 µM
- EC50 [6, 40]: 0.145 µM
- EC50 [6, 41]: 0.058 µM
- EC50 [6, 42]: 0.117 µM
- EC50 [7, 43]: 254 nM
- EC50 [7, 44]: 198 nM
- EC50 [7, 45]: 321 nM
- EC50 [7, 46]: 91 nM
- EC50 [7, 47]: 169 nM
- EC50 [7, 48]: 291 nM
- EC50 [7, 49]: 140 nM
- EC50 (MDA-MB-231-Luc): 193 nM
- EC50 (ZR-75-1): 220 nM
- EC50 (CAMA1): 304 nM
- EC50 (T47D): 253 nM
- EC50 (MCF7): 491 nM
- EC50 (DU4475): 145 nM
- EC50 (BT-549): 176 nM
- EC50 (HCC1599): 99 nM
- EC50 (CLK3): 13.6 nM
SMILES: Cc1ncc(-c2ccc3cnc(NC(=O)c4cnn(C5CCN(C)CC5)c4)cc3c2)o1 [Compound 83]
- EC50 (all 50 cell lines): 182 nM
